Values after ≈ are worked out from the molar mass of the structure shown. Where two headings read alike, the source gives them in different places.
Tests used:
Bacillus cereus = experiment: microbe, parasite or virus in culture
Description: (§1) The antimicrobial activities of 1–6 against Bacillus cereus, Proteus species, Mycobacterium phlei, Bacillus subtilis, Vibrio parahemolyticus, Edwardsiella tarda, MRCNS, and MRSA were evaluated as previously reported by using the agar dilution method. […] All strains were donated by the Qingdao municipal hospital.

Bacillus subtilis = experiment: microbe, parasite or virus in culture
Description: as §1

Edwardsiella tarda = experiment: microbe, parasite or virus in culture
Description: as §1

Mycobacterium phlei = experiment: microbe, parasite or virus in culture
Description: as §1

Proteus species = experiment: organism not typed
Description: as §1

MRCNS = system: MRCNS
Description: as §1

MRSA = system: MRSA
Description: as §1

Vibrio parahemolyticus = experiment: Antimicrobial activity (MIC), agar dilution method; type: cell-based; details: performed in triplicates
Description: as §1

in vitro [1] = type: cell-based; details: human; K562 cells; read-out: cytotoxic activity IC50
Description: (§2) HeLa (human epithelial carcinoma cell line), HCT-116 (human colon cancer cell line), MCF-7 (human breast adenocarcinoma cell line), A549 (human lung adenocarcinoma cell line), SH-SY5Y (human neuroblastoma cell line), MDA-MB-231 (human breast cancer cell line), HO8910 (human ovarian carcinoma cell line), and MGC-803 (human stomach carcinoma cell line) were ordered from Shanghai Institute of Biochemistry and Cell Biology, Chinese Academy of Sciences (Shanghai, China). K562 (human leukaemia cell line), BEL-7402 (human hepatic carcinoma cell line), L-02 (human normal hepatic cell line), GES-1 (human gastric epithelial cell line), U87 (human primary glioblastoma cell line), ASPC-1 (human pancreatic cancer cell line), PC-3 (human prostate carcinoma cell line), and NCI-H446 (human small cell lung cancer cell line) were ordered from the American Type Culture Collection (ATCC, Gaithersburg, MD, USA).

in vitro [2] = type: cell-based; details: human; BEL-7402 cells; read-out: cytotoxic activity IC50
Description: as §2

in vitro [3] = type: cell-based; details: human; HCT-116 cells; read-out: cytotoxic activity IC50
Description: as §2

in vitro [4] = type: cell-based; details: human; A549 cells; read-out: cytotoxic activity IC50
Description: as §2

in vitro [5] = type: cell-based; details: human; Hela cells; read-out: cytotoxic activity IC50
Description: as §2

in vitro [6] = type: cell-based; details: human; L-02 cells; read-out: cytotoxic activity IC50
Description: as §2

in vitro [7] = type: cell-based; details: human; U87 cells; read-out: cytotoxic activity IC50
in vitro [8] = type: cell-based; details: human; ASPC-1 cells; read-out: cytotoxic activity IC50
in vitro [9] = type: cell-based; details: human; SH-SY5Y cells; read-out: cytotoxic activity IC50
in vitro [10] = type: cell-based; details: human; PC-3 cells; read-out: cytotoxic activity IC50
in vitro [11] = type: cell-based; details: human; MGC-803 cells; read-out: cytotoxic activity IC50
Description: as §2

in vitro [12] = type: cell-based; details: human; HO8910 cells; read-out: cytotoxic activity IC50
Description: as §2

in vitro [13] = type: cell-based; details: human; MCF-7 cells; read-out: cytotoxic activity IC50
Description: as §2

in vitro [14] = type: cell-based; details: human; MDA-MB-231 cells; read-out: cytotoxic activity IC50
Description: as §2

in vitro [15] = type: cell-based; details: human; NCI-H446 cells; read-out: cytotoxic activity IC50
Description: as §2

in vitro [16] = details: human, GES-1 cells (gastric epithelial cell line)
[17] = dissolved in solvent mixture MeOH-H2O and exposed to air for two weeks; LC-MS
Excerpt: It is well-known that some artificial compounds are formed from natural compounds due to oxidation when exposed to air.

Row | Structure (SMILES) | MIC, B. cereus (Bacillus cereus) [µM] | MIC, B. subtilis (Bacillus subtilis) [µM] | MIC, E. tarda (Edwardsiella tarda) [µM] | MIC, M. phlei (Mycobacterium phlei) [µM] | MIC, P. species (Proteus species) [µM] | MIC, MRCNS (MRCNS) [µM] | MIC, MRSA (MRSA) [µM] | MIC, V. parahemolyticus (Vibrio parahemolyticus) [µM] | IC50 (in vitro [1]) [µM] | IC50 (in vitro [2]) [µM] | IC50 (in vitro [3]) [µM] | IC50 (in vitro [4]) [µM] | IC50 (in vitro [5]) [µM] | IC50 (in vitro [6]) [µM] | IC50 (in vitro [7]) [µM] | IC50 (in vitro [8]) [µM] | IC50 (in vitro [9]) [µM] | IC50 (in vitro [10]) [µM] | IC50 (in vitro [11]) [µM] | IC50 (in vitro [12]) [µM] | other results
1 | O=C(O)c1cn(C2CC2)c2cc(N3CCNCC3)c(F)cc2c1=O [CIP, Ciprofloxacin, reference compound] |  |  |  |  |  |  |  |  |  |  |  |  |  |  |  |  |  |  |  |  | MIC (Bacillus cereus; Bacillus cereus, read-out: MIC, B. cereus): 0.78 µM (≈ 0.258 µg/mL); MIC (Bacillus subtilis; Bacillus subtilis, read-out: MIC, B. subtilis): 0.195 µM (≈ 0.0646 µg/mL); MIC (Edwardsiella tarda; Edwardsiella tarda, read-out: MIC, E. tarda): 0.0125 µM (≈ 0.00414 µg/mL); MIC (Mycobacterium phlei; Mycolicibacterium phlei, read-out: MIC, M. phlei): 0.78 µM (≈ 0.258 µg/mL); MIC (Proteus species; read-out: MIC, P. species): 0.195 µM (≈ 0.0646 µg/mL)
2 | CO[C@H](/C=C/C=C/C(=O)N[C@H]1CCCNC(=O)[C@H](C)N(C)C(=O)[C@H](C(C)C)N(C)C1=O)[C@@H](C)O [Compound 4, (2′E,4′E)-cyclo-[(NMe-L-Ala)-(NMe-L-Val)-(Nα-(6R,7R)-7-hydroxy-6-methoxyocta-2,4-dienoyl-L-Orn)]] | 25.0 (≈ 12 µg/mL) | >50.0 | 25.0 (≈ 12 µg/mL) | >50.0 | 25.0 (≈ 12 µg/mL) | >50.0 | >50.0 | 25.0 (≈ 12 µg/mL) | > 30 | > 30 | > 30 | > 30 | > 30 | > 30 | > 30 | > 30 | > 30 | > 30 | > 30 | > 30 | IC50 (in vitro [13]): > 30 µM; IC50 (in vitro [14]): > 30 µM; IC50 (in vitro [15]): > 30 µM; IC50 (in vitro [16]): > 30 µM
3 | CC(C)[C@H]1C(=O)N(C)[C@@H](C)C(=O)NCCC[C@H](NC(=O)/C=C/C=C/C(=O)O)C(=O)N1C [Compound 1] | 3.13 (≈ 1.37 µg/mL) | 6.25 (≈ 2.73 µg/mL) | 1.56 (≈ 0.681 µg/mL) | 3.13 (≈ 1.37 µg/mL) | 3.13 (≈ 1.37 µg/mL) | 12.5 (≈ 5.46 µg/mL) | 25.0 (≈ 10.9 µg/mL) | 3.13 (≈ 1.37 µg/mL) | > 30 | > 30 | > 30 | > 30 | > 30 | > 30 | > 30 | > 30 | > 30 | > 30 | > 30 | > 30 | IC50 (in vitro [13]): > 30 µM; IC50 (in vitro [14]): > 30 µM; IC50 (in vitro [15]): > 30 µM; IC50 (in vitro [16]): > 30 µM
4 | COC(=O)/C=C/C=C/C(=O)N[C@H]1CCCNC(=O)[C@H](C)N(C)C(=O)[C@H](C(C)C)N(C)C1=O [Compound 2, (2′E,4′E)-cyclo-[(NMe-L-Ala)-(NMe-L-Val)-(Nα-6-methoxy-6-oxohexa-2,4-dienoyl-L-Orn)]] | 6.25 (≈ 2.82 µg/mL) | 12.5 (≈ 5.63 µg/mL) | 1.56 (≈ 0.703 µg/mL) | 12.5 (≈ 5.63 µg/mL) | 6.25 (≈ 2.82 µg/mL) | 25.0 (≈ 11.3 µg/mL) | 25.0 (≈ 11.3 µg/mL) | 6.25 (≈ 2.82 µg/mL) | > 30 | > 30 | > 30 | > 30 | > 30 | > 30 | > 30 | > 30 | > 30 | > 30 | > 30 | > 30 | IC50 (in vitro [13]): > 30 µM; IC50 (in vitro [14]): > 30 µM; IC50 (in vitro [15]): > 30 µM; IC50 (in vitro [16]): > 30 µM
5 | CC(C)[C@H]1C(=O)N(C)[C@@H](C)C(=O)NCCC[C@H](NC(=O)/C=C/C=C/C=O)C(=O)N1C [Compound 5, sclerotiotide F] | 25.0 (≈ 10.5 µg/mL) | >50.0 | 25.0 (≈ 10.5 µg/mL) | >50.0 | 25.0 (≈ 10.5 µg/mL) | >50.0 | >50.0 | 25.0 (≈ 10.5 µg/mL) | > 30 | > 30 | > 30 | > 30 | > 30 | > 30 | > 30 | > 30 | > 30 | > 30 | > 30 | > 30 | IC50 (in vitro [13]): > 30 µM; IC50 (in vitro [14]): > 30 µM; IC50 (in vitro [15]): > 30 µM; IC50 (in vitro [16]): > 30 µM
6 | C/C=C/C=C/C=C/C(=O)N[C@H]1CCCNC(=O)[C@H](C)N(C)C(=O)[C@H](C(C)C)N(C)C1=O [Compound 6, sclerotiotide B] | >50.0 | >50.0 | >50.0 | >50.0 | >50.0 | >50.0 | >50.0 | >50.0 | > 30 | > 30 | > 30 | > 30 | > 30 | > 30 | > 30 | > 30 | > 30 | > 30 | > 30 | > 30 | IC50 (in vitro [13]): > 30 µM; IC50 (in vitro [14]): > 30 µM; IC50 (in vitro [15]): > 30 µM; chemical stability (products formed) [17]: compounds 4 and 5 were also detected from the product; IC50 (in vitro [16]): > 30 µM
7 | CO[C@H](C)[C@@H](/C=C/C=C/C(=O)N(C)[C@H]1CCCN(C)C(=O)[C@H](C)N(C)C(=O)[C@H](C(C)C)N(C)C1=O)OC [Compound 3] | >50.0 | >50.0 | 25.0 (≈ 13.1 µg/mL) | >50.0 | >50.0 | >50.0 | >50.0 | 25.0 (≈ 13.1 µg/mL) | > 30 | > 30 | > 30 | > 30 | > 30 | > 30 | > 30 | > 30 | > 30 | > 30 | > 30 | > 30 | IC50 (in vitro [13]): > 30 µM; IC50 (in vitro [14]): > 30 µM; IC50 (in vitro [15]): > 30 µM; IC50 (in vitro [16]): > 30 µM

From PMC7694092, “Antibacterial Cyclic Tripeptides from Antarctica-Sponge-Derived Fungus Aspergillus insulicola HDN151418” (Marine Drugs, 2020)
